Results from patent US10111883B1, “Selective P2X3 modulators” (BELLUS Health inc., priority 2017, dated 2018).

Legend:
[1] = system: guinea pig cough model (citric acid and histamine); experiment: Guinea pig cough response model (dose response); assay type: in vivo; details: for reduction in cough vs. control: 2 hours prior to citric acid and histamine, coughs counted 15 minutes, statistically significant; for reduction in cough frequency as compared to the control (dose dependence): 0.3, 3 and 30 mg/kg oral
Excerpt: The anti-tussive effect of Compound 1 was compared to that of AF-219 in a guinea pig cough model. Guinea pigs are the most commonly used animal in cough studies for both the investigation of the cough reflex at a fundamental level and for use as an antitussive screen (Mackensie et al., Drug Discovery Today, 2004, 1, 297-302). In the guinea pig, it was shown that exposure to ATP and histamine aerosols increases cough responses to tussive stimuli via P2X3 receptor-mediated mechanisms (Kamei et al., Eur J Pharmacol (2005) 528: 158-161; Kamei et al., Eur J Pharmacol (2006) 547: 160-164).
(§1) Treatments (control, Compound 1 (0.3, 3 and 30 mg/kg) or AF-219 (0.3, 3 or 30 mg/kg)) were administered orally in seven groups of 6 animals 2 hours prior to tussive agent exposure (citric acid and histamine) and the number of coughs were counted for a period of 15 minutes.

taste function = experiment: Two bottle taste study (water vs quinine); assay type: in vivo, rat; details: 10 or 20 mg/kg intraperitoneally; for effect on taste function: rat; for quinine drunk relative to control: rats water-fasted overnight, volume measured for 15 minutes at Cmax
Description: A rat taste model was used to compare the effect of Compound 1 on taste function with that of AF-219. Animals were water-fasted overnight and presented with one bottle of water and one bottle of (bitter-tasting) quinine at the time corresponding to the maximum plasma concentration of study drugs; and the volume of liquid consumed from each bottle was measured for 15 minutes. Treatments (control, Compound 1 (10 or 20 mg/kg) or AF-219 (10 or 20 mg/kg)) were administered intraperitoneally in two groups of 10 rats.

[2] = system: guinea pig cough model (citric acid and histamine); experiment: Time course study in guinea pig cough response model; assay type: in vivo; details: single oral 30 mg/kg; for anti-tussive effect (significance): 8 hours post-dose
Description: as §1
Using the same guinea pig cough model as described in Example 2, a time course study was conducted to assess the duration of the anti-tussive effect of Compound 1 and AF-219 following the administration of a single oral 30 mg/kg dose. In this study, animals in groups of 6 were exposed to tussive agents (citric acid and histamine) at various times after the administration of the study drugs (2, 4, 6, 8 and 12 hours post-dose for Compound 1; and 2 and 8 hours post-dose for AF-219) and the number of coughs were measured for 15 minutes.

[3] = system: P2X3 and P2X2/P2X3 channel; experiment: Fluo-8 calcium assay, antagonism of P2X3 versus P2X2/P2X3 channels in HEK293 cells; assay type: cell-based; details: human P2X3 and P2X2/P2X3 in HEK293 cells, meATP stimulation; IC50s only in FIG. 3
Description: The ability of the compounds described herein and Gefapixant (also known as AF-219) to act as an antagonist of the P2X3 and P2X2/P2X3 channel (encoded by the human P2RX2 and P2RX3 genes, stably expressed in HEK293 cells) was evaluated with a Fluo-8 calcium kit. Compounds 1, 2, 9, 11, 15, and AF-219 were evaluated at twelve concentrations.
For the antagonist effect assessment, the cells were pre-incubated with Compounds 1, 2, 9, 11, 15, and AF-219 for 20 minutes, then stimulated with the P2X3 and P2X2/P2X3 agonist α,β-methyleneATP (meATP) at final concentrations of 3 μM and 30 μM. Four minutes fifty seconds after addition of meATP, ionomycin was added at a final concentration of 5 μM in order to obtain the maximum calcium influx and fluorescence signal possible from the cells. Fluorescence was recorded continuously for 10 minutes, starting 10 seconds prior to the addition of meATP.

Compound	reduction in cough vs. control ([1]; 30 mg/kg oral)	reduction in cough frequency as compared to the control (dose dependence) [1]	effect on taste function (taste function)	quinine drunk relative to control (taste function)	duration of anti-tussive effect [2]	reduction in cough frequency compared to control (significance) ([2]; 2 hours post-dose)	anti-tussive effect (significance) [2]	selectivity as P2X3 antagonist (P2X3 versus P2X2/3) [3]	other results
COc1cc(C(C)C)c(Oc2cnc(N)nc2N)cc1S(N)(=O)=O [AF-219, Gefapixant, reference compound]	45%	comparable dose-dependent reduction in cough frequency	altered taste function	approximately 5 times	comparable duration of effect	statistically significant	no longer significant	–	–
CNC(=O)c1cc(F)c(-c2nc3cc(C)ccn3c2C[C@H]2CN(C(=O)OC)CCO2)c(F)c1 [Compound 1]	52%	comparable dose-dependent reduction in cough frequency	did not	did not drink more quinine than the control animals	comparable duration of effect	statistically significant	no longer significant	selective P2X3 antagonists	reduction in cough vs. control ([1]; 3 mg/kg oral): 39%; reduction in cough frequency compared to control (significance) ([2]; 4 hours post-dose): statistically significant; reduction in cough frequency compared to control (significance) ([2]; 6 hours post-dose): statistically significant
CCC(=O)N1CCO[C@@H](Cc2c(-c3c(F)cc(C(=O)NC)cc3F)nc3cc(C)ccn23)C1 [Compound 2]	–	–	–	–	–	–	–	selective P2X3 antagonists	–
CNC(=O)c1cc(F)c(-c2nc3cc(C)ccn3c2C[C@H]2CN(C(C)=O)CCO2)cc1F [Compound 9]	–	–	–	–	–	–	–	selective P2X3 antagonists	–
CNC(=O)c1ccc(-c2nc3cc(Cl)ccn3c2C[C@H]2CN(C(C)=O)CCO2)c(C)c1 [Compound 11]	–	–	–	–	–	–	–	selective P2X3 antagonists	–
CNC(=O)c1cc(F)c(-c2nc3cc(Cl)ccn3c2C[C@H]2CN(C(C)=O)CCO2)c(F)c1 [Compound 15]	–	–	–	–	–	–	–	selective P2X3 antagonists	–
